The target in the assay is T1, Purine nucleoside phosphorylase (Plasmodium falciparum, UniProt Q8T9Z7).
T1 sequence (Q8T9Z7 whole entry): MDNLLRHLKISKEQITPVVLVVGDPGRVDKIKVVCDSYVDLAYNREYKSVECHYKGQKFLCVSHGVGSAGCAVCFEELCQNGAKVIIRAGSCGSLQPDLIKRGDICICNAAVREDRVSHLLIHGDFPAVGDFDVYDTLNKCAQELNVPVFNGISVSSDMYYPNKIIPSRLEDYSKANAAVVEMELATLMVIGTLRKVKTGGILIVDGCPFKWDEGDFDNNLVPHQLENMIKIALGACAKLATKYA
Kind of assay: Inhibition of Plasmodium falciparum PNP expressed in Escherichia coli BL21(DE3) cells by spectrophotometry.

The values below come from BindingDB's records for doi:10.1016/j.ejmech.2010.08.026 (Instituto De Parasitología Y Biomedicina …, 2010).

Some results are limits rather than exact numbers.

Take `O=c1[nH]c(O)c(Cc2ccccc2)c(=O)[nH]1` [5-benzylpyrimidine-2,4,6(1H,3H,5H)-trione]: the IC50 (commonly the concentration needed to halve the response being measured) was > 1000 µM.
